Calls of active or inactive are those of the source. How the calls were made is not given here.
Test system: rodent carcinogenicity bioassays, tumor incidence
Experiment: CCRIS carcinogenicity studies
Method in brief: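 NCI-built, expert-reviewed records of carcinogenicity and related test outcomes (mutagenicity, tumor promotion/inhibition) compiled from published and report sources, historical span 1985-2011, not updated.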

Measured: carcinogen call

CCN(CC)N=O
active: Species: DOG, Route: ORAL, Tumor Site: Type of Lesion: LIVER active; positive | Species: FISH, Route: ORAL, Tumor Site: Type of Lesion: LIVER active; positive | Species: FISH, Strain/Sex: GUPPY POECILIA RETICULATA/MALE, FEMALE, Route: IMMERSION, Dose: 0, 29.4 MG/L IN WATER FOR 28 D (STUDY DURATION: 6 MONTHS), Tumor Site: Type of Lesion: LIVER: MULTIFOCAL HEPATOMA, CHOLANGIOMA active; positive | Species: FISH, Strain/Sex: MEDAKA/MALE,FEMALE, Route: IMMERSION, Dose: 0, 390 PPM IN AQUEOUS BATH FOR 48 HR (STUDY DURATION: 7 MO), Tumor Site: Type of Lesion: LIVER: TUMOR active; positive | Species: FISH, Strain/Sex: SHASTA RAINBOW TROUT/FEMALE, Route: ORAL, Dose: 0, 4, 70, 275, 550, 1100 PPM IN DIET FOR 12 MO (STUDY DURATION: 18 MO), Dose: 0, 4, 70, 275, 550, 1100 PPM IN DIET FOR 12 MO (STUDY DURATION: 18 MO), Tumor Site: Type of Lesion: LIVER: TUMOR active; positive | Species: FISH, Strain/Sex: SHASTA RAINBOW TROUT/MALE, Route: ORAL, Dose: 0, 4, 70, 275, 550, 1100 PPM IN DIET FOR 12 MO (STUDY DURATION: 18 MO), Dose: 0, 4, 70, 275, 550, 1100 PPM IN DIET FOR 12 MO (STUDY DURATION: 18 MO), Tumor Site: Type of Lesion: LIVER: TUMOR active; positive | Species: GUINEA PIG, Route: ORAL, SUBCUTANEOUS, Tumor Site: Type of Lesion: LIVER active; positive | Species: HAMSTER, Route: DERMAL, Tumor Site: Type of Lesion: NASAL CAVITY active; positive | Species: HAMSTER, Route: INHALATION, Tumor Site: Type of Lesion: TRACHEA, LUNG active; positive | Species: HAMSTER, Route: INTRAPERITONEAL, Tumor Site: Type of Lesion: TRACHEA, NASAL CAVITY, BRONCHI, LIVER, Tumor Site: Type of Lesion: TRACHEA, NASAL CAVITY, BRONCHI, LIVER active; positive | Species: HAMSTER, Route: ORAL, Tumor Site: Type of Lesion: TRACHEA, LUNG, NASAL CAVITY, BRONCHI, LIVER, FORESTOMACH, ESOPHAGUS, Tumor Site: Type of Lesion: TRACHEA, LUNG, NASAL CAVITY, BRONCHI, LIVER, FORESTOMACH, ESOPHAGUS active; positive | Species: HAMSTER, Route: SUBCUTANEOUS, Tumor Site: Type of Lesion: NASAL CAVITY, BRONCHI, TRACHEA, LUNG, LIVER, FORESTOMACH, ESOPHAGUS, Tumor Site: Type of Lesion: NASAL CAVITY, BRONCHI, TRACHEA, LUNG, LIVER, FORESTOMACH, ESOPHAGUS active; positive | Species: HAMSTER, Strain/Sex: SYRIAN/FEMALE, Route: INTRATRACHEAL, Dose: 0, 1 MG IN 0.1 ML PHOSPHATE BUFFER 15/WK FOR 4 MO (STUDY DURATION: 237 D), Tumor Site: Type of Lesion: LUNG: ADENOMA OR CARCINOMA, TRACHEA: PAPILLOMA active; positive | Species: HAMSTER, Strain/Sex: SYRIAN/MALE, Route: INTRATRACHEAL, Dose: 0, 0.1, 0.5 MG IN PHOSPHATE BUFFER 1/WK FOR 15 WK (TOTAL DOSE; 1.5; 7.5 MG) (STUDY DURATION: LIFESPAN), Dose: 0, 0.1, 0.5 MG IN PHOSPHATE BUFFER 1/WK FOR 15 WK (TOTAL DOSE; 1.5; 7.5 MG) (STUDY DURATION: LIFESPAN), Tumor Site: Type of Lesion: TRACHEA: PAPILLOMA, LUNG: ADENOMA, SQUAMOUS CARCINOMA, ADENOCARCINOMA, LIVER: HEPATOCELLULAR CARCINOMA, Tumor Site: Type of Lesion: TRACHEA: PAPILLOMA, LUNG: ADENOMA, SQUAMOUS CARCINOMA, ADENOCARCINOMA, LIVER: HEPATOCELLULAR CARCINOMA active; positive | Species: MONKEY, Route: ORAL, INTRAPERITONEAL, Tumor Site: Type of Lesion: LIVER active; positive | Species: MOUSE, Route: DERMAL, Tumor Site: Type of Lesion: NASAL CAVITY active; positive | Species: MOUSE, Route: ORAL, Tumor Site: Type of Lesion: LIVER, ESOPHAGUS, LUNG, FORESTOMACH, Tumor Site: Type of Lesion: LIVER, ESOPHAGUS, LUNG, FORESTOMACH active; positive | Species: MOUSE, Route: SUBCUTANEOUS, INTRAPERITONEAL, Tumor Site: Type of Lesion: LUNG active; positive | Species: MOUSE, Strain/Sex: AKR/MALE, Route: ORAL, Dose: 0, 100 PPM IN DRINKING WATER FOR DURATION OF STUDY (STUDY DURATION: 150 D), Tumor Site: Type of Lesion: LUNG: TUMOR active; positive | Species: MOUSE, Strain/Sex: B6C3F1/FEMALE, Route: INTRAPERITONEAL, Dose: 0, 1.5, 3 UG IN 0.01 ML TRIOCTANOIN/G BW INITIAL DOSE GIVEN ON DAY 1 OF AGE AND 3 SUBSEQUENT DOSES GIVEN 3, 9 AND 15 DAY, Dose: 0, 1.5, 3 UG IN 0.01 ML TRIOCTANOIN/G BW INITIAL DOSE GIVEN ON DAY 1 OF AGE AND 3 SUBSEQUENT DOSES GIVEN 3, 9 AND 15 DAY, Tumor Site: Type of Lesion: LIVER: ADENOMA, CARCINOMA, LUNG: TUMORS active; positive | Species: MOUSE, Strain/Sex: B6C3F1/FEMALE, Route: INTRAPERITONEAL, Dose: 0, 1.5, 3 UG IN 0.01 ML TRIOCTANOIN/G BW INITIAL DOSE GIVEN ON DAY 15 OF AGE AND 3 SUBSEQUENT DOSES GIVEN 3, 9 AND 15 DA, Dose: 0, 1.5, 3 UG IN 0.01 ML TRIOCTANOIN/G BW INITIAL DOSE GIVEN ON DAY 15 OF AGE AND 3 SUBSEQUENT DOSES GIVEN 3, 9 AND 15 DA, Tumor Site: Type of Lesion: LIVER: ADENOMA, CARCINOMA, LUNG: TUMORS active; positive | Species: MOUSE, Strain/Sex: B6C3F1/FEMALE, Route: INTRAPERITONEAL, Dose: 0, 1.5, 3 UG IN 0.01 ML TRIOCTANOIN/G BW INITIAL DOSE GIVEN ON DAY 42 OF AGE AND 3 SUBSEQUENT DOSES GIVEN 3, 9 AND 15 DA, Dose: 0, 1.5, 3 UG IN 0.01 ML TRIOCTANOIN/G BW INITIAL DOSE GIVEN ON DAY 42 OF AGE AND 3 SUBSEQUENT DOSES GIVEN 3, 9 AND 15 DA, Tumor Site: Type of Lesion: LIVER: ADENOMA, CARCINOMA, LUNG: TUMORS active; positive | Species: MOUSE, Strain/Sex: B6C3F1/MALE, Route: INTRAPERITONEAL, Dose: 0, 0.02, 0.07 UMOL/G BW IN 10 µL/G BW TRIOCTANOIN ONCE AT 12 D OF AGE (STUDY DURATION: 9 MO), Dose: 0, 0.02, 0.07 UMOL/G BW IN 10 µL/G BW TRIOCTANOIN ONCE AT 12 D OF AGE (STUDY DURATION: 9 MO), Tumor Site: Type of Lesion: LIVER: HEPATOMA active; positive | Species: MOUSE, Strain/Sex: B6C3F1/MALE, Route: INTRAPERITONEAL, Dose: 0, 1.5, 3 UG IN 0.01 ML TRIOCTANOIN/G BW INITIAL DOSE GIVEN ON DAY 1 OF AGE AND 3 SUBSEQUENT DOSES GIVEN 3, 9 AND 15 DAY, Dose: 0, 1.5, 3 UG IN 0.01 ML TRIOCTANOIN/G BW INITIAL DOSE GIVEN ON DAY 1 OF AGE AND 3 SUBSEQUENT DOSES GIVEN 3, 9 AND 15 DAY, Tumor Site: Type of Lesion: LIVER: ADENOMA, CARCINOMA, LUNG: TUMORS active; positive | Species: MOUSE, Strain/Sex: B6C3F1/MALE, Route: INTRAPERITONEAL, Dose: 0, 1.5, 3 UG IN 0.01 ML TRIOCTANOIN/G BW INITIAL DOSE GIVEN ON DAY 15 OF AGE AND 3 SUBSEQUENT DOSES GIVEN 3, 9 AND 15 DA, Dose: 0, 1.5, 3 UG IN 0.01 ML TRIOCTANOIN/G BW INITIAL DOSE GIVEN ON DAY 15 OF AGE AND 3 SUBSEQUENT DOSES GIVEN 3, 9 AND 15 DA, Tumor Site: Type of Lesion: LIVER: ADENOMA, CARCINOMA, LUNG: TUMORS active; positive | Species: MOUSE, Strain/Sex: B6C3F1/MALE, Route: INTRAPERITONEAL, Dose: 0, 1.5, 3 UG IN 0.01 ML TRIOCTANOIN/G BW INITIAL DOSE GIVEN ON DAY 42 OF AGE AND 3 SUBSEQUENT DOSES GIVEN 3, 9 AND 15 DA, Dose: 0, 1.5, 3 UG IN 0.01 ML TRIOCTANOIN/G BW INITIAL DOSE GIVEN ON DAY 42 OF AGE AND 3 SUBSEQUENT DOSES GIVEN 3, 9 AND 15 DA, Tumor Site: Type of Lesion: LIVER: ADENOMA, CARCINOMA, LUNG: TUMORS active; positive

— PubChem BioAssay AID1259411 (Chemical Carcinogenesis Research Information System (CCRIS), 2018)
